Measured values taken from patent US6737383B1, “Herbicidal oxadiazolidines” (priority 1999, dated 2004).

Tests used:
velvetleaf = assay: Test B pre/postemergence velvetleaf; assay type: in vivo, Abutilon theophrasti; settings: for Plant response rating, Velvetleaf: Rate 250 g/ha
Method in brief: (§1)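 Response is a visual 0-to-10 score relative to untreated plants, where 0 means no effect and 10 means complete control, taken twelve to sixteen days after application. Treatments went onto soil at planting and onto foliage of 1- to 4-leaf plants, using a surfactant-containing non-phytotoxic solvent.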

sugar beet = assay: Test B pre/postemergence sugar beet; assay type: in vivo, Beta vulgaris; settings: for Plant response rating, Sugarbeets: Rate 250 g/ha
Method in brief: as §1

purple nutsedge = assay: Test B pre/postemergence purple nutsedge; assay type: in vivo, Cyperus rotundus
Method in brief: as §1

surinam grass = assay: Test B pre/postemergence surinam grass; assay type: in vivo, Brachiaria decumbens
Method in brief: as §1

bamyardgrass = assay: Test B flood test barnyardgrass; assay type: in vivo, Echinochloa crus-galli
Method in brief: (§2)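 Plants were grown to the 2-leaf stage before treatment with test chemical, then held in a greenhouse for twelve to sixteen days. Injury was visually rated against untreated controls on a 0–10 scale, where 0 is no effect and 10 is complete control.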

blackgrass = assay: Test B pre/postemergence blackgrass; assay type: in vivo, Alopecurus myosuroides
Method in brief: as §1

cocklebur = assay: Test B pre/postemergence cocklebur; assay type: in vivo, Xanthium strumarium
Method in brief: as §1

soybean = assay: Test B pre/postemergence soybean; assay type: in vivo, Glycine max
Method in brief: as §1

bedstraw = assay: Test B pre/postemergence bedstraw; assay type: in vivo, Galium aparine
Method in brief: as §1

wheat = assay: Test B pre/postemergence wheat; assay type: in vivo, Triticum aestivum; settings: for Plant response rating, Wheat: Rate 250 g/ha
Method in brief: as §1

pigweed = assay: Test B pre/postemergence pigweed; assay type: in vivo, Amaranthus retroflexus
Method in brief: as §1

wild oat = assay: Test B pre/postemergence wild oat; assay type: in vivo, Avena fatua; settings: for Plant response rating, Wild oats: Rate 250 g/ha
Method in brief: as §1

smallflower flatsedge = assay: Test B flood test smallflower flatsedge; assay type: in vivo, Cyperus difformis
Method in brief: as §2

corn = assay: Test B pre/postemergence corn; assay type: in vivo, Zea mays
Method in brief: as §1

rape = assay: Test B pre/postemergence rape; assay type: in vivo, Brassica napus
Method in brief: as §1

crabgrass = assay: Test B pre/postemergence crabgrass; assay type: in vivo, Digitaria sanguinalis
Method in brief: as §1

[1] = Postemergence, Rate 125 g/ha, scale of 0 to 10 where 0 is no effect and 10 is complete control
[2] = Preemergence, Rate 62 g/ha, scale 0 to 10 (0 no effect, 10 complete control)
[3] = Preemergence, Rate 125 g/ha, 0 is no effect, 10 is complete control
[4] = Preemergence, scale of 0 to 10 where 0 is no effect and 10 is complete control
[5] = Preemergence, Rate 500 g/ha, scale 0 to 10 (0 no effect, 10 complete control)
[6] = Rate 62 g/ha, Postemergence, scale of 0 to 10 where 0 is no effect and 10 is complete control
[7] = Postemergence, scale 0 to 10, 0 is no effect, 10 is complete control
[8] = Rate 500 g/ha, Postemergence, scale 0 to 10, 0 no effect, 10 complete control
[9] = Postemergence, Rate 250 g/ha, scale 0 to 10, 0 no effect, 10 complete control
[10] = Preemergence, Rate 125 g/ha, scale 0 to 10 (0 no effect, 10 complete control)
[11] = Preemergence, Rate 250 g/ha, scale of 0 to 10 where 0 is no effect and 10 is complete control
[12] = Postemergence, Rate 62 g/ha, scale 0 to 10, 0 is no effect, 10 is complete control
[13] = Rate 125 g/ha, Postemergence, scale 0 to 10, 0 no effect, 10 complete control
[14] = Rate 250 g/ha, headed Pre-emergence (flood test species), scale 0 to 10 (0 no effect, 10 complete control)
[15] = Rate 500 g/ha, headed Pre-emergence (flood test species), scale 0 to 10 (0 no effect, 10 complete control)
[16] = Rate 250 g/ha, Postemergence, scale 0 to 10, 0 is no effect, 10 is complete control

## CCCn1c(=O)on(C(=O)N(c2ccc(Cl)cc2)C(C)C)c1=O [Compound 119]
velvetleaf; [1]
  Velvetleaf plant response rating: 2
velvetleaf; [2]
  Velvetleaf plant response rating: 0
velvetleaf; [3]
  Velvetleaf plant response rating (0 to 10 scale): 4
velvetleaf; [4]
  Plant response rating, Velvetleaf: 5
velvetleaf; [5]
  Velvetleaf plant response rating: 6
velvetleaf; [6]
  Velvetleaf plant response rating: 0
velvetleaf; [7]
  Plant response rating, Velvetleaf: 3
velvetleaf; [8]
  Velvetleaf plant response rating: 3
Sugar beet; [1]
  Sugarbeets plant response rating: 0
Sugar beet; [2]
  Sugarbeets plant response rating: 3
Sugar beet; [3]
  Sugarbeets plant response rating (0 to 10 scale): 4
Sugar beet; [4]
  Plant response rating, Sugarbeets: 8
Sugar beet; [5]
  Sugarbeets plant response rating: 8
Sugar beet; [6]
  Sugarbeets plant response rating: 0
Sugar beet; [7]
  Plant response rating, Sugarbeets: 0
Sugar beet; [8]
  Sugarbeets plant response rating: 4
Purple nutsedge; [1]
  Nutsedge plant response rating: 0
Purple nutsedge; [9]
  Nutsedge plant response rating: 0
Purple nutsedge; [2]
  Nutsedge plant response rating: 0
Purple nutsedge; [10]
  Plant response rating, Nutsedge: 0
Purple nutsedge; [11]
  Plant response rating, Nutsedge: 0
Purple nutsedge; [5]
  Nutsedge plant response rating: 6
Purple nutsedge; [6]
  Nutsedge plant response rating: 0
Purple nutsedge; [8]
  Nutsedge plant response rating: 0
Surinam grass; [12]
  B. signalgrass plant response rating: 0
Surinam grass; [9]
  B. signalgrass plant response rating: 3
Surinam grass; [2]
  B. signalgrass plant response rating: 5
Surinam grass; [10]
  Plant response rating, B. signalgrass: 7
Surinam grass; [11]
  Plant response rating, B. signalgrass: 7
Surinam grass; [5]
  B. signalgrass plant response rating: 9
Surinam grass; [13]
  B. signalgrass plant response rating: 0
Surinam grass; Rate 500 g/ha, Postemergence, scale of 0 to 10 where 0 is no effect and 10 is complete control
  B. signalgrass plant response rating: 5
bamyardgrass; [14]
  Barnyardgrass plant response rating: 0
bamyardgrass; [15]
  Plant response rating, Barnyardgrass: 0
bamyardgrass; Rate 1000 g/ha, Pre-emergence (as headed), scale 0 to 10
  Barnyardgrass plant response rating: 0
bamyardgrass; Rate 2000 g/ha, Pre-emergence (as headed), scale 0 to 10, 0 no effect, 10 complete control
  Barnyardgrass plant response rating: 0
blackgrass; [1]
  Blackgrass plant response rating: 3
blackgrass; [9]
  Blackgrass plant response rating: 7
blackgrass; [2]
  Blackgrass plant response rating: 5
blackgrass; [10]
  Plant response rating, Blackgrass: 8
blackgrass; [11]
  Plant response rating, Blackgrass: 9
blackgrass; [5]
  Blackgrass plant response rating: 9
blackgrass; [6]
  Blackgrass plant response rating: 2
blackgrass; [8]
  Blackgrass plant response rating: 8
cocklebur; [1]
  Cocklebur plant response rating: 0
cocklebur; [9]
  Cocklebur plant response rating: 0
cocklebur; [2]
  Cocklebur plant response rating: 0
cocklebur; [10]
  Plant response rating, Cocklebur: 0
cocklebur; [11]
  Plant response rating, Cocklebur: 0
cocklebur; [6]
  Cocklebur plant response rating: 0
cocklebur; [8]
  Cocklebur plant response rating: 0
soybean; [1]
  Soybean plant response rating: 2
soybean; [2]
  Soybean plant response rating: 0
soybean; [10]
  Plant response rating, Soybean: 0
soybean; [11]
  Plant response rating, Soybean: 0
soybean; [5]
  Soybean plant response rating: 0
soybean; [6]
  Soybean plant response rating: 1
soybean; [16]
  Plant response rating, Soybean: 4
soybean; [8]
  Soybean plant response rating: 6
bedstraw; [12]
  Bedstraw plant response rating: 0
bedstraw; [9]
  Bedstraw plant response rating: 4
bedstraw; [10]
  Plant response rating, Bedstraw: 0
bedstraw; [11]
  Plant response rating, Bedstraw: 2
bedstraw; [5]
  Bedstraw plant response rating: 8
bedstraw; [13]
  Bedstraw plant response rating: 2
bedstraw; [8]
  Bedstraw plant response rating: 8
wheat; [1]
  Wheat plant response rating: 0
wheat; [2]
  Wheat plant response rating: 0
wheat; [3]
  Wheat plant response rating (0 to 10 scale): 0
wheat; [4]
  Plant response rating, Wheat: 3
wheat; [5]
  Wheat plant response rating: 5
wheat; [6]
  Wheat plant response rating: 0
wheat; [7]
  Plant response rating, Wheat: 3
wheat; [8]
  Wheat plant response rating: 3
pigweed; [1]
  Redroot pigweed plant response rating: 0
pigweed; [2]
  Redroot pigweed plant response rating: 10
pigweed; [10]
  Plant response rating, Redroot pigweed: 10
pigweed; [11]
  Plant response rating, Redroot pigweed: 10
pigweed; [5]
  Redroot pigweed plant response rating: 10
pigweed; [6]
  Redroot pigweed plant response rating: 0
pigweed; [16]
  Plant response rating, Redroot pigweed: 2
pigweed; [8]
  Redroot pigweed plant response rating: 6
Wild oat; [1]
  Wild oats plant response rating: 0
Wild oat; [2]
  Wild oats plant response rating: 5
Wild oat; [3]
  Wild oats plant response rating (0 to 10 scale): 6
Wild oat; [4]
  Plant response rating, Wild oats: 6
Wild oat; [5]
  Wild oats plant response rating: 9
Wild oat; [6]
  Wild oats plant response rating: 0
Wild oat; [7]
  Plant response rating, Wild oats: 3
Wild oat; [8]
  Wild oats plant response rating: 6
Smallflower flatsedge; Pre-emergence, Rate 1000 g/ha, scale 0 to 10 (0 no effect, 10 complete control)
  S. Flatsedge plant response rating: 0
Smallflower flatsedge; [14]
  S. Flatsedge plant response rating: 0
Smallflower flatsedge; [15]
  Plant response rating, S. Flatsedge: 0
Smallflower flatsedge; Rate 2000 g/ha, Pre-emergence (as headed), scale 0 to 10
  S. Flatsedge plant response rating: 0
corn; [1]
  Corn plant response rating: 0
corn; [9]
  Corn plant response rating: 0
corn; [2]
  Corn plant response rating: 0
corn; [10]
  Plant response rating, Corn: 0
corn; [11]
  Plant response rating, Corn: 0
corn; [5]
  Corn plant response rating: 2
corn; [6]
  Corn plant response rating: 0
corn; [8]
  Corn plant response rating: 0
rape; [1]
  Rape plant response rating: 0
rape; [9]
  Rape plant response rating: 2
rape; [2]
  Rape plant response rating: 4
rape; [10]
  Plant response rating, Rape: 6
rape; [11]
  Plant response rating, Rape: 7
rape; [5]
  Rape plant response rating: 9
rape; [6]
  Rape plant response rating: 0
rape; [8]
  Rape plant response rating: 4
crabgrass; [1]
  Crabgrass plant response rating: 3
crabgrass; [9]
  Crabgrass plant response rating: 8
crabgrass; [2]
  Crabgrass plant response rating: 7
crabgrass; [11]
  Plant response rating, Crabgrass: 8
crabgrass; [5]
  Crabgrass plant response rating: 10
crabgrass; [6]
  Crabgrass plant response rating: 2
crabgrass; [8]
  Crabgrass plant response rating: 8
